The source of these data is ChEMBL document CHEMBL3739345, “Design and synthesis of potent and selective inhibitors of BRD7 and BRD9 bromodomains” (Medchemcomm, 2015).

One may read the ΔTm as the change in melting temperature against a reference sample. In general, IC50 refers to the concentration that gives 50% inhibition. Read a low IC50 as greater potency. What is called Kd is the constant that tells how readily two partners part at equilibrium. High values mean weaker binding, low ones tighter binding.

Molecules are shown by their SMILES. The source made the active and inactive calls. The rule behind the calls is not given here.

Assay [1] deals with Bromodomain adjacent to zinc finger domain protein 2A (Homo sapiens) (UniProt Q9UIF9). The assay is described as follows: Binding affinity to human BAZ2A at 10 uM by differential scanning fluorimetry. (Differential scanning fluorimetry follows unfolding on heating by fluorescence.)
Assay [2] addresses T1, Bromodomain-containing protein 9 (Homo sapiens) (UniProt Q9H8M2).
T1 sequence (whole entry): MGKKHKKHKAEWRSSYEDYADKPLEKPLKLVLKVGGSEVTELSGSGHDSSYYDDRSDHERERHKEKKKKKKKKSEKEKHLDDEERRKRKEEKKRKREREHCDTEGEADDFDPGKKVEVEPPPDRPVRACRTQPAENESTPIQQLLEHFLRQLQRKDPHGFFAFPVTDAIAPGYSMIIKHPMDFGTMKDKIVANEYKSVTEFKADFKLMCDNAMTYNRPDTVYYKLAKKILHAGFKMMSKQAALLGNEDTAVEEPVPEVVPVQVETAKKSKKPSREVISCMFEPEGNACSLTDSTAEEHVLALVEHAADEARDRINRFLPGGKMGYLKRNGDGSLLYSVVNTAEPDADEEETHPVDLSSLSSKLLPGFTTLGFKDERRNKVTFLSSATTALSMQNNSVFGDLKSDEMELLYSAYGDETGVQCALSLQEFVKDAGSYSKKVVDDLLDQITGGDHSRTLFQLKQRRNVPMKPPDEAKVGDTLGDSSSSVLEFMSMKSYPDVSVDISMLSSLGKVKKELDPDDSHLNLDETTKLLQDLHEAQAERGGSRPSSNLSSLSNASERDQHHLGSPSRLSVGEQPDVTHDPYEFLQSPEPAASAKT
The assay is described as follows: Inhibition of human BRD9 expressed in U2OS cells assessed as inhibition of BRD9-chromatin association after 24 hrs by FRAP assay in presence of pan-HDAC inhibitor SAHA. The format is cell-based.

Assay [3] concerns the target Nucleosome-remodeling factor subunit BPTF (Homo sapiens) (UniProt Q12830). The assay is described as follows: Binding affinity to human FALZ assessed as change in melting temperature at 10 uM by differential scanning fluorimetry.
Assay [4] concerns the target T2, Bromodomain adjacent to zinc finger domain protein 2B (Homo sapiens, UniProt Q9UIF8). The assay is described as follows: Inhibition of human BAZ2B by alpha screen assay. For orientation: Bead proximity is the source of the signal in Alpha formats.
The target in assay [5] is Histone acetyltransferase p300 (Homo sapiens) (UniProt Q09472). The assay is described as follows: Binding affinity to human p300 assessed as change in melting temperature at 10 uM by differential scanning fluorimetry.
Assay [6] deals with T3, Bromodomain-containing protein 7 (Homo sapiens) (UniProt Q9NPI1).
T3 sequence (whole entry): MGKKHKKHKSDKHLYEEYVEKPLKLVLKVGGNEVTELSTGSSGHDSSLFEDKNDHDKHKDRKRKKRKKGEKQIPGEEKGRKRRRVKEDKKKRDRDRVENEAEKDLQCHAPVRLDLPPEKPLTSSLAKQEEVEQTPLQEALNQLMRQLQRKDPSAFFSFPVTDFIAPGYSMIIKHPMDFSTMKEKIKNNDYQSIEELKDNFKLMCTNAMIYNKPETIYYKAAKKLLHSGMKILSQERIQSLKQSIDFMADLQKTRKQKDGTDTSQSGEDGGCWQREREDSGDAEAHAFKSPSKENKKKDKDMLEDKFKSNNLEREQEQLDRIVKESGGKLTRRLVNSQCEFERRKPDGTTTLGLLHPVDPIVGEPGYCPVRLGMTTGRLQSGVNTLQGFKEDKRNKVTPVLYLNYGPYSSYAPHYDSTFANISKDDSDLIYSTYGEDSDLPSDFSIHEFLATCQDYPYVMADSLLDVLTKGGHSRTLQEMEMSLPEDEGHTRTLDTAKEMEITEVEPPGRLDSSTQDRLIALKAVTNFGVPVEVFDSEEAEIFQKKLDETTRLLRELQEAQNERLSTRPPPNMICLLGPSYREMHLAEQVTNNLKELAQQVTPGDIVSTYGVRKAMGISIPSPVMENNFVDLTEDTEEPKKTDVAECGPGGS
Nature of the assay: Binding affinity to human BRD7 assessed as change in melting temperature at 10 uM by differential scanning fluorimetry.

Assay [7] deals with T4, Bromodomain-containing protein 1 (Homo sapiens) (UniProt O95696).
T4 sequence (whole entry): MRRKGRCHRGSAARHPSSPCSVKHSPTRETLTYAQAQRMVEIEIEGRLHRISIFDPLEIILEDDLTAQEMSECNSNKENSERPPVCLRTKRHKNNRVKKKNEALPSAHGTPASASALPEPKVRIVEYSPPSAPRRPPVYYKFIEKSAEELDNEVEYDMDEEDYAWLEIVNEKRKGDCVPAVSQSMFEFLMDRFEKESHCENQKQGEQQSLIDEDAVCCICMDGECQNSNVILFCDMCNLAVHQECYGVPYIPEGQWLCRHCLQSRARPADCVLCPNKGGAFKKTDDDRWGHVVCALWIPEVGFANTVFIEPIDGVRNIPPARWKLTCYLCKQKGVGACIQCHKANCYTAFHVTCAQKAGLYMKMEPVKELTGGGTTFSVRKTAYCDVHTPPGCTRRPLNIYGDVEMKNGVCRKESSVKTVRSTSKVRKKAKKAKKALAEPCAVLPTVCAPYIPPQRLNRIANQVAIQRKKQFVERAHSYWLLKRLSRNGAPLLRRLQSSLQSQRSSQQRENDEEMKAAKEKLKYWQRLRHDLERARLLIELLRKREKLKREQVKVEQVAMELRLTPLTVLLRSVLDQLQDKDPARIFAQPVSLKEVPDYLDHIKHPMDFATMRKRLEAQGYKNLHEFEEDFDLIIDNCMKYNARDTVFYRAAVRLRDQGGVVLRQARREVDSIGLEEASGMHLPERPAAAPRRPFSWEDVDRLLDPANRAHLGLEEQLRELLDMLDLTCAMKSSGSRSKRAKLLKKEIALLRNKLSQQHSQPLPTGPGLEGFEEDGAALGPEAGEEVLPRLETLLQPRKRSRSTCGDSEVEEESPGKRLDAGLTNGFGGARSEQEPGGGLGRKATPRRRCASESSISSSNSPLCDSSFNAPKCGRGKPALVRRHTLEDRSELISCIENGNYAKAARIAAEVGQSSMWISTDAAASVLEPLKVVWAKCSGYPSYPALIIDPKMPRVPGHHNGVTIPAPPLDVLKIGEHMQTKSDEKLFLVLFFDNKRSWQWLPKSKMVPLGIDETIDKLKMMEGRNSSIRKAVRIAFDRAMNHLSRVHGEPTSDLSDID
Nature of the assay: Binding affinity to human BRD1 at 10 uM by differential scanning fluorimetry.

The target in assay [8] is T5, Bromodomain-containing protein 7 (Homo sapiens, UniProt Q9NPI1).
T5 sequence (Q9NPI1 whole entry): T3 sequence (whole entry)
Nature of the assay: Binding affinity to human BRD7 by isothermal titration calorimetry. (In ITC the heat of successive injections is recorded.)

Assay [9] has as its target T2, Bromodomain adjacent to zinc finger domain protein 2B. Nature of the assay: Binding affinity to human BAZ2B at 10 uM by differential scanning fluorimetry.

T2 sequence (Q9UIF8 whole entry, the tested form may be a part): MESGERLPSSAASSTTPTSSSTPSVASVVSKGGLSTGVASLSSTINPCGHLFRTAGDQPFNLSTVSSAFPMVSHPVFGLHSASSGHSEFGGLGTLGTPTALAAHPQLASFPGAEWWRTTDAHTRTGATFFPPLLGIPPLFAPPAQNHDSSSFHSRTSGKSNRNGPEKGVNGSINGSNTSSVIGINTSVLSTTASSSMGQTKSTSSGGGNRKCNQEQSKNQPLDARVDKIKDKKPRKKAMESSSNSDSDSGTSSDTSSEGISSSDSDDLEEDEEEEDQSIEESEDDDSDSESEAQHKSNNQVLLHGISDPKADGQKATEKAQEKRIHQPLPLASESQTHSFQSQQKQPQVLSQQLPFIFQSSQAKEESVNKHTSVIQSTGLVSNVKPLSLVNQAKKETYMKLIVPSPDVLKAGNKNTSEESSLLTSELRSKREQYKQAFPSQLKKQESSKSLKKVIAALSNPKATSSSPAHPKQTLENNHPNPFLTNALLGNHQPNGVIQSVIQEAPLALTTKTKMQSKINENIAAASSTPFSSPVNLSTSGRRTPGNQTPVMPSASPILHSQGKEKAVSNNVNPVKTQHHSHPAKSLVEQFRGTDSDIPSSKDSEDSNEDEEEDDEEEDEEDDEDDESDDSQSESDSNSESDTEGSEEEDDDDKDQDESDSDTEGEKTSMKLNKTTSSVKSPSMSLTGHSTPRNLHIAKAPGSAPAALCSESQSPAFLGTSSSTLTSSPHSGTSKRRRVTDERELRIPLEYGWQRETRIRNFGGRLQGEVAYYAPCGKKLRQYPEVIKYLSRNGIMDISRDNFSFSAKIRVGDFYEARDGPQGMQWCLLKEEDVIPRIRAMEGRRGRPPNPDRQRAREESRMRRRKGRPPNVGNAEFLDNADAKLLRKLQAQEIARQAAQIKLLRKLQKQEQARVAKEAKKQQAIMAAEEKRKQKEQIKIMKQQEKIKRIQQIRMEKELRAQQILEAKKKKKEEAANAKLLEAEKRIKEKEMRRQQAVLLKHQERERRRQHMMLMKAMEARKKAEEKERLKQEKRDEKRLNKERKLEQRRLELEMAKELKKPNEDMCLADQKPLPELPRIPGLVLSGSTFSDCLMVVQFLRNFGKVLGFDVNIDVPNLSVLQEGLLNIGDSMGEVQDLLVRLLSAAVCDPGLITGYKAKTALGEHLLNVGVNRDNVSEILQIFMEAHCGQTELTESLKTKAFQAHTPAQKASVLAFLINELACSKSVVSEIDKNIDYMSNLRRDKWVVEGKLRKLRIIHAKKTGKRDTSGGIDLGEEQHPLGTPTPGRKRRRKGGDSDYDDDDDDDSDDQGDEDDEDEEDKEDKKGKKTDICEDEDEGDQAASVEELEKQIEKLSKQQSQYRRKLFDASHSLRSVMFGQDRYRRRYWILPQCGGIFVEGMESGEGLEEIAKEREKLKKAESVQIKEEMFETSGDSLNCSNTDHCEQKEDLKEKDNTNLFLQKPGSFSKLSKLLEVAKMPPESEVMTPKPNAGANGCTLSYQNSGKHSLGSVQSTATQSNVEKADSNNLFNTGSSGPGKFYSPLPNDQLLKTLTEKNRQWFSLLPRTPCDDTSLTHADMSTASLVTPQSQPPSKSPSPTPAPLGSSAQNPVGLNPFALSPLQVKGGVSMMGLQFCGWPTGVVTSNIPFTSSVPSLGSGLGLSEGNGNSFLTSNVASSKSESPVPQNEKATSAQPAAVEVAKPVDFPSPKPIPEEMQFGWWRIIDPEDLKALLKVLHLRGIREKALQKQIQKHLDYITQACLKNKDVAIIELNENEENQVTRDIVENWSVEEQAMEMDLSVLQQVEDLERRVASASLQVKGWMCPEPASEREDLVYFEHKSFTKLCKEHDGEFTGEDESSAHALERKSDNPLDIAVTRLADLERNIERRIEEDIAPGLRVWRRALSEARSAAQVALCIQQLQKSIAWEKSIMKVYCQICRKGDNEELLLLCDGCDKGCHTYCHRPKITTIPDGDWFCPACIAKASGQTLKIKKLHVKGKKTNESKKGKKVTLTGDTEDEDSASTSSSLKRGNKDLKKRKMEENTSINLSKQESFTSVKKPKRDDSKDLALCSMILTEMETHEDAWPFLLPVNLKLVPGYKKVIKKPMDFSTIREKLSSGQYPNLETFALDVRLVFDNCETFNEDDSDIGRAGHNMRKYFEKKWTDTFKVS
Histone acetyltransferase p300 (Homo sapiens), sequence (Q09472 whole entry): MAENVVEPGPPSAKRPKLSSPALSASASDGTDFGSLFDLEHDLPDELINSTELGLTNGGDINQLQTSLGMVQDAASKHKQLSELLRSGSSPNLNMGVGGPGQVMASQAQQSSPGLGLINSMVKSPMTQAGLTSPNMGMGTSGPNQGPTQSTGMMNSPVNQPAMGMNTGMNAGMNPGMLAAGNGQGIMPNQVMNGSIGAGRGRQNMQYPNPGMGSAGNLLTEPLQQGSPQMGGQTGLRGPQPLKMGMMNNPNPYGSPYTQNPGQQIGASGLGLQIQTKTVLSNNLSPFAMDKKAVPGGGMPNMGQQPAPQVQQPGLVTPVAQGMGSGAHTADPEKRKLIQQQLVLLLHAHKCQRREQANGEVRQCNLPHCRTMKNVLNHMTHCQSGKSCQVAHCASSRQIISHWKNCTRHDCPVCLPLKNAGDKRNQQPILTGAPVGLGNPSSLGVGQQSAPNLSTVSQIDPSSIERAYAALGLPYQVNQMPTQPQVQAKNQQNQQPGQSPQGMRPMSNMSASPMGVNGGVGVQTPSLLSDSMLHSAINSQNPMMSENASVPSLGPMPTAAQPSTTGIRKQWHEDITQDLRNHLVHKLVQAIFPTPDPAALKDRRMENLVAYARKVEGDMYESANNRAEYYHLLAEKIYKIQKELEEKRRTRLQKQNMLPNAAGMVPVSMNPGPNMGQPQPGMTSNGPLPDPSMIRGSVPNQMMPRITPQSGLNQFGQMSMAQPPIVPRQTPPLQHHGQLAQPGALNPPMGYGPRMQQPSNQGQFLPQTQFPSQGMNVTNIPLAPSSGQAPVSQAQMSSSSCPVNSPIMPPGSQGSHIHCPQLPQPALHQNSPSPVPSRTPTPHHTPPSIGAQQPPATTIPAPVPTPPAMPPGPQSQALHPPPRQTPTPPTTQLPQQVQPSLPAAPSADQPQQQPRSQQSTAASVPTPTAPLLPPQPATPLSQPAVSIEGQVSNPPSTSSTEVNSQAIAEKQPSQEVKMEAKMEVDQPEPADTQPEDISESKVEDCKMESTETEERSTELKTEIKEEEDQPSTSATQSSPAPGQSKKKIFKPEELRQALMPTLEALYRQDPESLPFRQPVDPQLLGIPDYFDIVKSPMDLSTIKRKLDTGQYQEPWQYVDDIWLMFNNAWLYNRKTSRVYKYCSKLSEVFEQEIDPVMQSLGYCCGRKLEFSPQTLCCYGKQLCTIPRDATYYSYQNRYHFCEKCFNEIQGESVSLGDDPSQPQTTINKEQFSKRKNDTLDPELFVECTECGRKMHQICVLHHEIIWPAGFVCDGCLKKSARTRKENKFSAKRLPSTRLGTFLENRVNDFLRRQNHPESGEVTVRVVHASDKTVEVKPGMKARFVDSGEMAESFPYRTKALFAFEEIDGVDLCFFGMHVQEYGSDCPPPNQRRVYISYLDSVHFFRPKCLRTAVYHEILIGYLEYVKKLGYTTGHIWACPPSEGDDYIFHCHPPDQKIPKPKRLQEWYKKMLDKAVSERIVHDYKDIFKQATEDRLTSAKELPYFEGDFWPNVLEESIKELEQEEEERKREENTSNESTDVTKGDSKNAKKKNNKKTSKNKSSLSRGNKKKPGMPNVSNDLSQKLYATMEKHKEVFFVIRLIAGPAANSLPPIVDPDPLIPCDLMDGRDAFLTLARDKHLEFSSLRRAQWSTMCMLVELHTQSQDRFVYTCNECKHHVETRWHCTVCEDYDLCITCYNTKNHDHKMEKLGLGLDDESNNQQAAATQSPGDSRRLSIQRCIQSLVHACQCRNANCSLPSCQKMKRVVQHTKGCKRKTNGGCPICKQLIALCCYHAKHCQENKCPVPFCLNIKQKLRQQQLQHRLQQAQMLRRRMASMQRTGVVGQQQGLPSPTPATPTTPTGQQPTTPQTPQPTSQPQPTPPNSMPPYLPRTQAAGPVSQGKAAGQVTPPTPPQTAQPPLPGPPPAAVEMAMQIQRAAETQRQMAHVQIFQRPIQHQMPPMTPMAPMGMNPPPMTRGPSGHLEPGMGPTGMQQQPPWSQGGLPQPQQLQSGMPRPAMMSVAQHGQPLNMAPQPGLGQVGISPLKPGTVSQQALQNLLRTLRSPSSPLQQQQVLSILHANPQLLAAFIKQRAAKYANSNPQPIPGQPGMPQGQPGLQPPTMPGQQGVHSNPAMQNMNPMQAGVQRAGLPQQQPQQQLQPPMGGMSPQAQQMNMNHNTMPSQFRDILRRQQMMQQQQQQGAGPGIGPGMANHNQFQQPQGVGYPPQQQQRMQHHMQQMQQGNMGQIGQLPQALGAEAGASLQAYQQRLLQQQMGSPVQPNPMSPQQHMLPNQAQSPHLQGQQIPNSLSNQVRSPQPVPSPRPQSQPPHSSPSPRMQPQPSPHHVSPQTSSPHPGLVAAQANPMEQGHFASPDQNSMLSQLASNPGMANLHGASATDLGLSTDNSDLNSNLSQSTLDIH

For `CC(=O)c1cc(-c2cccc3nccn23)c2cc(N3CCOCC3)ccn12`, the result in assay [1], in assay [7] and in assay [9] was Active. Moreover, the inhibition entry in [2] is “Dose-dependent effect”. Moreover, the figures for the ΔTm in assay [3], in assay [5] and in assay [6] were 1.1 °C, 2 °C and 5.6 °C, respectively. In assay [4], the IC50 is more than 100000 nM. In [8], this molecule came in with a dissociation constant Kd of 368 nM.
